Data set [1] deals with T1, CYP3A (Homo sapiens, UniProt P08684). The following applies: for inhibitory effects against CYP3A: microsomes.
The subject of data set [2] is CYP3A. Description: in vitro. The following applies: human, human liver microsomes, pH 7.4, probe testosterone (6β-hydroxylation). A general note: Liver microsomes are a subcellular fraction often used to study metabolism.
Data set [3] has as its target T1, CYP3A. Description: in vitro. To be noted: microsomes.
Data set [4] is described as follows: Pharmacokinetic interactions between HEJG and lopinavir in rats. To be noted: lopinavir in rat plasma; for AUC(0-inf) / Cmax: male, Sprague-Dawley, rat, plasma, po, 160 mg/kg.
[5] abbreviates: pH 7.4, Time-dependent inhibition IC50 Preincubation for 3 min.
Where [6] appears, read: pH 7.4, Time-dependent inhibition IC50 Preincubation for 33 min.
The mark [7] stands for this setting: HEJG (3 g/kg, i.g.) + lopinavir (160 mg/kg, i.g.).
The mark [8] stands for this setting: Water + lopinavir (160 mg/kg, i.g.), control group.

T1 sequence (P08684 2-503): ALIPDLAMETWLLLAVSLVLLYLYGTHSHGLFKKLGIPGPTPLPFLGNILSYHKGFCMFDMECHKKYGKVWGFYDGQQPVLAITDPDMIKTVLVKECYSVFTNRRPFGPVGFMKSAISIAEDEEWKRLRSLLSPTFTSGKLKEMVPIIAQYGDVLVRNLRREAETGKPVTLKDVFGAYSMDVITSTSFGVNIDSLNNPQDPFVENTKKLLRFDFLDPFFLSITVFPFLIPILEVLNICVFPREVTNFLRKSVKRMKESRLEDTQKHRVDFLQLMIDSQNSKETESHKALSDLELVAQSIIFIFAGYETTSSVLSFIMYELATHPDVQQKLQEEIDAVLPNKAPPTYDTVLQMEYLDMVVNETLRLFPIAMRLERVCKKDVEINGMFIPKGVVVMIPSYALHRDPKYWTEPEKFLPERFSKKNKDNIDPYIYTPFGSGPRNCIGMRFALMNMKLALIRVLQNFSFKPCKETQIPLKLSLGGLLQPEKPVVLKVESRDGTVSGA

Take `COc1cc(O)ccc1/C=C/C(=O)c1ccc(O)cc1` [Echinatin]: the Ratio on CYP3A [1] (constituents, IC50 3 min / 33 min preincubation) came out at 3.20. Besides, the IC50 in the data set on CYP3A [2] (Time-dependent inhibition IC50 Preincubation for 3 min, constituents, HLMs, 3 min preincubation) turned out to be 25.9 ± 3.19 µM; in the data set on CYP3A [2] (Time-dependent inhibition IC50 Preincubation for 33 min, constituents, HLMs, 33 min preincubation), 8.08 ± 0.56 µM.

Regarding `O=c1c(O)c(-c2ccc(O)c(O)c2)oc2cc(O)cc(O)c12` [Quercetin], the IC50 with CYP3A [2] is 3.95 ± 0.31 µM.

Turning to `O=c1c(O)c(-c2ccc(O)cc2)oc2cc(O)cc(O)c12` [Kaempferol], the IC50 shift on CYP3A [3] (pH 7.4) was determined as 2.01. The IC50 is 13.1 ± 1.29 µM at CYP3A [3] (setting [5]) and 6.53 ± 0.31 µM on CYP3A [3] (setting [6]).

Take `Cc1cccc(C)c1OCC(=O)N[C@@H](Cc1ccccc1)[C@@H](O)C[C@H](Cc1ccccc1)NC(=O)[C@H](C(C)C)N1CCCNC1=O` [lopinavir]: in data set [4] (setting [7]), the t1/2 is recorded as 2.68 ± 0.45 h, the AUC(0-inf) amounted to 10200 ± 1570 ng·h/mL and the Cmax was 1860 ± 215 ng/mL. In data set [4] (setting [8]), the AUC(0-inf) stood at 4190 ± 131 ng·h/mL and the Cmax worked out at 1280 ± 55 ng/mL.

With `O=C(O)/C=C/c1ccc(O)c(O)c1` [Caffeic acid], the “inhibitory effects against CYP3A” value against CYP3A [1] was “weak inhibitory effects”. Moreover, the IC50 against CYP3A [3] (setting [5]) and against CYP3A [3] (setting [6]) was more than 100 µM in each case.

For the compound `O=C(/C=C/c1ccc(O)c(O)c1)O[C@@H]1C[C@](O)(C(=O)O)C[C@@H](O)[C@H]1O` [Chlorogenic acid], the “inhibitory effects against CYP3A” value at CYP3A [1] is on record as “weak inhibitory effects”. For the same compound, the IC50 against CYP3A [3] (setting [5]) and against CYP3A [3] (setting [6]) was more than 100 µM in each case.

By IC50 is commonly meant the concentration that gives 50% inhibition. Low values mean inhibition by little substance, high ones a need for much substance. In general, AUC(0-inf) refers to total exposure, with the tail of the curve extrapolated. The term Cmax denotes the peak of the concentration-time curve.
